Data: patent US9623049B2, “Immunotherapy using redirected allogeneic cells” (YEDA RESEARCH AND DEVELOPMENT CO. LTD., priority 2010, dated 2017)

Experiments:
[1] = target: T1, S1P4 (Homo sapiens, UniProt O95977); conditions: at concentrations up to 10 μM; cited from earlier work
T1 sequence (O95977 1-384): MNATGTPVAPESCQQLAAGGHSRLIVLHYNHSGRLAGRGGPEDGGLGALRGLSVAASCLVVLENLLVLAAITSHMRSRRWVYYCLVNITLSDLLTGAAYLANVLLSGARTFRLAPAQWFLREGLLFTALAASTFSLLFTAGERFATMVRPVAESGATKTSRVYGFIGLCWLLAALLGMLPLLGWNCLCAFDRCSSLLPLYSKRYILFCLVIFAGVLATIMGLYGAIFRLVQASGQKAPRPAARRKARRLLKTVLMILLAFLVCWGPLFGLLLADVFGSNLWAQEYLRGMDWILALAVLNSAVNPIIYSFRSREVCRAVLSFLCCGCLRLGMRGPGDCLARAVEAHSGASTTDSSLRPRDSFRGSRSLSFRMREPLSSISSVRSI

[2] = target: T2, S1P3 (Homo sapiens, UniProt Q99500); conditions: at concentrations up to 10 μM; cited from earlier work
T2 sequence (Q99500 whole entry, species assumed): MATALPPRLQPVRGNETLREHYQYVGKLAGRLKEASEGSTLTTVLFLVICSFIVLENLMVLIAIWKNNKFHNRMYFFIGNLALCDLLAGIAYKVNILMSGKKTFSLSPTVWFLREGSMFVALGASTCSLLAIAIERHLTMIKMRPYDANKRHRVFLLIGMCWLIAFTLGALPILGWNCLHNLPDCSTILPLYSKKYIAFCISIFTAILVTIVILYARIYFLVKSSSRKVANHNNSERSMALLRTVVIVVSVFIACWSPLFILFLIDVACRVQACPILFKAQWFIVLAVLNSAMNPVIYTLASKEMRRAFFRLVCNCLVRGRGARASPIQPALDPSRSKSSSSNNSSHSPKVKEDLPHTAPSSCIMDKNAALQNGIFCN

[3] = target: S1P2 (Homo sapiens, UniProt O95136); conditions: at concentrations up to 10 μM; cited from earlier work
S1P2, sequence (O95136 whole entry, species assumed): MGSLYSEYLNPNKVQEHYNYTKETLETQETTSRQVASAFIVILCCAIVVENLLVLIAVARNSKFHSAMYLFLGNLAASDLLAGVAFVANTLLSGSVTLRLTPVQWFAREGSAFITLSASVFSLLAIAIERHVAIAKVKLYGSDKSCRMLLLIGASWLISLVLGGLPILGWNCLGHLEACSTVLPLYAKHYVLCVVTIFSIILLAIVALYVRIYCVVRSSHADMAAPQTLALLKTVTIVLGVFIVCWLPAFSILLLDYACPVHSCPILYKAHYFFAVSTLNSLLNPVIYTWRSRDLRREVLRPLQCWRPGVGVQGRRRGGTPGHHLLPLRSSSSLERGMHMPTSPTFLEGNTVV

[4] = target: S1P5 receptors (Homo sapiens, UniProt Q9H228); conditions: at concentrations up to 10 μM; cited from earlier work
S1P5 receptors, sequence (Q9H228 whole entry): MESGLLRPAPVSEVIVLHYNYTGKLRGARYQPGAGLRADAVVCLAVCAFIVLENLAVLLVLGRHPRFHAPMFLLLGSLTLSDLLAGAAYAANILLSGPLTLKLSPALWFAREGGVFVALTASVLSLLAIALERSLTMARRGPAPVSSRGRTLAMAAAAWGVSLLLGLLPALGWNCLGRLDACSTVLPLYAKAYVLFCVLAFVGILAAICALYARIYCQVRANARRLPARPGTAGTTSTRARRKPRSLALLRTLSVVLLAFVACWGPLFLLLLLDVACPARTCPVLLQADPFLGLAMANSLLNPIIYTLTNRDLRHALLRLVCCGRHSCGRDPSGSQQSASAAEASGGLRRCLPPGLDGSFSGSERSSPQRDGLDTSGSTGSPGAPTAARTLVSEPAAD

[5] = test system: Renca-Her2/neu tumor; assay: Survival of Renca-Her2/neu tumor bearing mice after irradiation and T-body transfer (Example 10); type: in vivo, Balb/c mice
Method: Adoptive transfer experiments. Mice were injected with […] Renca-Her2/neu cells iv on day 1. All mice (including the control group) were irradiated on day 7 with 200 or 400 rads (137Cs source). Prior to transfer, all T cells were activated with Con-A 1 μg/ml for 48 hours, and then cultured for 3-5 more days with 350 u/ml IL-2. Either 30×10^6 or 108 T cells were transferred in a split dose on days 8 and 10. In some experiments, FTY720 was injected ip (0.3 mg/kg) on days 8-18. Donor cells were either from wildtype mice (Balb/c or C57BL/6) or from N29 CAR transgenic mice (Balb/c or C57BL/6 backgrounds). In some cases, T-bodies from wild type mice (Balb/c or C57Bl) were transduced with the CAR.
To investigate the potential of allogeneic adoptive cell therapy, the BALB/c derived mouse renal cell carcinoma (Renca) cell line expressing the human Her2/neu was used. Following intravenous inoculation of the tumor, experimental metastases mainly developed in the lungs, yet, as was reported in similar systems (ref. 62, 63) extra-pulmonary metastases also developed. […] Adoptive transfer of T cells redirected with a Her2/neu-specific chimeric antigen receptor (‘T-bodies’) was performed on days 8 and 10 (FIG. 21). The CAR is composed of a scFv fragment derived from the Her2/Neu-specific N29 antibody fused to a CD28 co-activation moiety and FcRγ signaling sequences (ref. 8). […] T-bodies were obtained from transgenic (Tg) mice of BALB/c (Balb-N29) or C57BL/6 (Black-N29) background, or by the transduction of wild type T cells with a retrovector harboring the Her2/neu-specific CAR. Transduced T cells were activated as part of their transduction, while naïve transgenic (Tg) T cells were also activated to facilitate comparison with transduced T cells.

[6] = FACS analysis of blood and spleen lymphocytes after transfer of allogeneic T-bodies with or without FTY720; type: in vivo, Balb/c mice
Method: Prior to splenocyte staining, RBC were lysed using ACK buffer. Lymphocytes (1×10^6) were incubated with the appropriate antibodies in staining buffer (5% BSA, 0.05% sodium azide in phosphate-buffered saline (PBS)) for 30 minutes on ice. Alternatively, Annexin V staining buffer was used as indicated. CFSE (Carboxyfluorescein succinimidyl ester) labeling was performed according to the manufacturer's instructions (Molecular Probes. Eugene, Oreg.). Cells were analyzed by flow cytometry (LSRII, Becton Dickinson. Mountain View. Calif.) and FacsDiva software (Becton Dickinson).
This enhanced persistence of allogeneic T-bodies can explain the increased survival of tumor bearing mice treated with allogeneic T-bodies and FTY720.

[7] = test system: Renca-erbb2 pulmonary metastases
Method: After determining safe regimens for adoptive transfer, the inventors tested the efficacy of tumor rejection by CR redirected T cells. The inventors used the Renca-erbb2, renal cancer cell line, stably transfected with erbB2 (HER2) which was injected intravenously into Balb/c mice to generate experimental pulmonary metastases. As effectors, the inventors used splenocytes from transgenic mice expressing a HER2 specific chimeric receptor (based on the N29 antibody derived scFv, FIGS. 7A-B) under the CD2 promoter (which is expressed in T and NK cells [8]). The HER2-specific transgenic mice were kept on two backgrounds: C57Bl and Balb/c (named C57Bl-N29 and Balb-N29 respectively). Wild type Balb/c mice were injected with the Renca-erbb2 on day 1, irradiated on day 7, and HER2 specific T-bodies were injected on day 8 (and also on day 10 and 12 in some cases).
The inventors therefore compared the efficacy of allogeneic (C57Bl-N29) to syngeneic (Balb-N29) T-bodies, and to ensure that allogeneic cells mediate a specific antitumor response (and not just an allogeneic response), they also tested the effect of activated wild type C57Bl cells. Previous experiments in the inventors' lab have established that the minimal regimen which provides significant therapeutic benefit (boosting median survival to 90 days) using syngeneic Balb-N29 is irradiation with 200 rad and transfer of 3 doses of 10 million cells each (abbreviated as 200/30 regimen) complemented with low dose IL-2 (1000 u) twice daily. The purpose was to test if one can provide therapeutic benefit in this model using allogeneic C57Bl-N29 cells. The inventors used the initial regimen as a starting point with one important difference: instead of using naïve transgenic cells, the cells were pre-activated before transfer for 48 hours with concanavalin A. The reason for the change was to simulate a more clinically relevant situation in which lymphocytes will need to be activated in order to facilitate retroviral transduction with the chimeric receptor.

[8] = target: S1P1 (Homo sapiens, UniProt P21453); conditions: high affinity for S1P1; cited from earlier work
S1P1, sequence (P21453 whole entry): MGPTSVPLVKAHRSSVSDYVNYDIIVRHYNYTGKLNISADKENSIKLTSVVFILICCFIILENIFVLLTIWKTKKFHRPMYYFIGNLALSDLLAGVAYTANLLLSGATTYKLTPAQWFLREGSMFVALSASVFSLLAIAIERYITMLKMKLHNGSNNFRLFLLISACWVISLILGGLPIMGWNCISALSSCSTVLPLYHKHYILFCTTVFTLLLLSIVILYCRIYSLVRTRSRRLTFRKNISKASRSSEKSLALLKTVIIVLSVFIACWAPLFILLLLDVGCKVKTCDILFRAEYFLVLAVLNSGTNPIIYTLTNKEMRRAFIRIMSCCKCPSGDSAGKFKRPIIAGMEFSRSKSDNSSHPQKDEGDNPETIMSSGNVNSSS

[9] = in vivo; cited from earlier work
[10] = target: T2, S1P3; conditions: read-out: ED50 (the source's name); cited from earlier work
[11] = 400 rads and 10^8 allo-T-bodies with FTY720

FC(F)(F)c1cccc(-c2noc(-c3cc(-c4ccccc4)c(C(F)(F)F)s3)n2)c1 [SEW2871, 5-[4-Phenyl-5-(trifluoromethyl)thiophen-2-yl]-3-[3-(trifluoromethyl)phenyl]1,2,4-oxadiazole]
receptor activation [1]: does not activate
receptor activation [2]: does not activate
receptor activation [3]: does not activate
receptor activation [4]: does not activate

CCCCCCCCc1ccc(CCC(N)(CO)CO)cc1.Cl [FTY720, 2-amino-2-[2-(4-octylphenyl)ethyl]propane-1,3-diol]
effect of FTY720 alone on survival of tumor bearing mice ([5]; 0.3 mg/kg i.p for the first 10 days after irradiation, no T-bodies): not to affect the survival of tumor bearing mice
long term survival (>350 days) [5, 11]: most of the remaining mice survived long term
mice died of GvHD [5, 11]: 16%
mice surviving long term (>350 days) ([5]; 400 rads and 30x10^6 allogeneic T-bodies with FTY720 0.3 mg/kg ip 10 days): 58%
median survival ([5]; 400 rads and 30x10^6 syngeneic T-bodies with FTY720 0.3 mg/kg ip 10 days): 90 days
lymphocyte egression to the blood ([6]; 4 days after transfer of allogeneic T-bodies, CD3 staining of blood): inhibited lymphocyte egression to the blood
allo-T-bodies in the spleen ([6]; day 7 after transfer, anti-H2Kb staining, with vs without FTY720): higher numbers of allo-T-bodies detected in the spleen on day 7
long term survivors ([7]; 200/100 regimen, C57Bl-N29 with FTY720): 80%
surviving after day 250 ([7]; 400/30 regimen, C57Bl-N29 with FTY720): ≥ 50%
median survival ([7]; 400/30 regimen, C57Bl-N29 with FTY720 0.3 mg/kg ip daily days 8-18): not reached
GVHD mortality (mice died) ([7]; 400/30 regimen, activated wild type C57Bl cells with FTY720 0.3 mg/kg ip daily days 8-18): 2/6
tumor bearing mice survived long term ([7]; temporary FTY720 treatment added to allogeneic cells (FIG. 18)): 50-80%

NC(CO)(CCc1ccc(Sc2cccc(Oc3ccccc3)c2)cc1Cl)COP(=O)(O)O (stereo not shown) [KRP-203 phosphate, 2-ammonio-4-(2-chloro-4-(3-phenoxyphenylthio)phenyl)-2-(hydroxymethyl)butyl hydrogen phosphate]
ED50 [8]: in the nM range
reduction of incidence of bradycardia compared to FTY720 [9]: 10 fold
EC50 [10]: > 1000 nM
